Measurements from patent publication US7250442B2, “Dihydroindol-2-one derivatives as steroid hormone nuclear receptor modulators” (Eli Lilly and Company, priority 2003, dated 2007).

Molecular target: T1, human MR (Homo sapiens, UniProt P08235)
T1 construct: The full length human MR gene is cloned from a human kidney or human brain cDNA library; made in house; host or cells: Sf9 insect cells (baculovirus, pAcHLT transfer vector)
T1 sequence (P08235 1-984): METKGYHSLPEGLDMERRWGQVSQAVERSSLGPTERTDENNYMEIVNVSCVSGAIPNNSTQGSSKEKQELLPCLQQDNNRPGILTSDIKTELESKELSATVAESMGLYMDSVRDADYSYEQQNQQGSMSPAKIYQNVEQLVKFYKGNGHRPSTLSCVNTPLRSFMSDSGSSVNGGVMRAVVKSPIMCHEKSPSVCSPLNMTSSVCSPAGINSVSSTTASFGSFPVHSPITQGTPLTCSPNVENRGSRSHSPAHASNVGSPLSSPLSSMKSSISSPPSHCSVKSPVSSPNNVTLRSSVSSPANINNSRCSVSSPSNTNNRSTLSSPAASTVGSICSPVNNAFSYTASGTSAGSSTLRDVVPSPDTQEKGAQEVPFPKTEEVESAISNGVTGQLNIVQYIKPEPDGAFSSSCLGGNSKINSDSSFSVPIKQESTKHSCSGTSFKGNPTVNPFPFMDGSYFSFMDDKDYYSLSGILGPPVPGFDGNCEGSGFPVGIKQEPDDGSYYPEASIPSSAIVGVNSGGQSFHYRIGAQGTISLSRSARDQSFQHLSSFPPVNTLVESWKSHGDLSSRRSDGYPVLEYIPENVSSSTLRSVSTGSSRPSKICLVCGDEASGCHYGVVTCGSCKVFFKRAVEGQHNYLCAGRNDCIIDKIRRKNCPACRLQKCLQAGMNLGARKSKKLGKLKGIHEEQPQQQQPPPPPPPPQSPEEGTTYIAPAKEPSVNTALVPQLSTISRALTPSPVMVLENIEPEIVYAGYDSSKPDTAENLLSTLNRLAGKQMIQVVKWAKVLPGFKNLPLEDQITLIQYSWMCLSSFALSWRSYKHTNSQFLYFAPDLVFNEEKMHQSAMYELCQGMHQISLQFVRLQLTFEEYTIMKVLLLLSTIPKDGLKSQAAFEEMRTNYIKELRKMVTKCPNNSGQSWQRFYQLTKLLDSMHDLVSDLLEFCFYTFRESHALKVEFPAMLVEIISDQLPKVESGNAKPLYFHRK
Assay: Mineralocorticoid Receptor Binding Assay ([3H]-aldosterone displacement)
Details: full length human MR expressed in Sf9 cells, 0.5 nM [3H]-aldosterone
Method in brief: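 Full-length human MR expressed in Sf9 cells; lysate (20-25 μg protein) incubated with 0.5 nM [3H]-aldosterone and test compound in molybdate/Tris/phosphate/glycerol buffer pH 7.5, 16 h at 4 °C. Bound ligand measured by filtration and scintillation counting; IC50 converted to Ki via Cheng-Prusoff.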

Ki [nM] | SMILES
≤ 500 | Cc1cc(C2(c3cc(C)c(O)c(C)c3)C(=O)N(Cc3ccc(OCc4ccccc4)cc3)c3ccccc32)cc(C)c1O [Example 74, 1-(4-Benzyloxy-benzyl)-3,3-bis-(4-hydroxy-3,5-dimethyl-phenyl)-1,3-dihydro-indol-2-one]
≤ 500 | Cc1cc(C2(c3cc(C)c(O)c(C)c3)C(=O)N(Cc3c(F)cccc3Cl)c3ccccc32)cc(C)c1O [Example 76, 1-(2-Chloro-6-fluoro-benzyl)-3,3-bis-(4-hydroxy-3,5-dimethyl-phenyl)-1,3-dihydro-indol-2-one]
≤ 500 | CCCCCN1C(=O)C(c2cc(C)c(O)c(C)c2)(c2cc(C)c(O)c(C)c2)c2ccccc21 [Example 77, 3,3-Bis-(4-hydroxy-3,5-dimethyl-phenyl)-1-pentyl-1,3-dihydro-indol-2-one]
≤ 500 | Cc1cc(C2(c3cc(C)c(O)c(C)c3)C(=O)N(CC#N)c3ccccc32)cc(C)c1O [Example 78, [3,3-Bis-(4-hydroxy-3,5-dimethyl-phenyl)-2-oxo-2,3-dihydro-indol-1-yl]-acetonitrile]
≤ 500 | Cc1cc(C2(c3cc(C)c(O)c(C)c3)C(=O)N(Cc3ccccc3OC(F)F)c3ccccc32)cc(C)c1O [Example 79, 1-(2-Difluoromethoxy-benzyl)-3,3-bis-(4-hydroxy-3,5-dimethyl-phenyl)-1,3-dihydro-indol-2-one]
≤ 500 | CCOCCN1C(=O)C(c2cc(C)c(O)c(C)c2)(c2cc(C)c(O)c(C)c2)c2ccccc21 [Example 80, 1-(2-Ethoxy-ethyl)-3,3-bis-(4-hydroxy-3,5-dimethyl-phenyl)-1,3-dihydro-indol-2-one]
≤ 500 | Cc1cc(C2(c3cc(C)c(O)c(C)c3)C(=O)N(Cc3ccc(Cl)cc3F)c3ccccc32)cc(C)c1O [Example 83, 1-(4-Chloro-2-fluoro-benzyl)-3,3-bis-(4-hydroxy-3,5-dimethyl-phenyl)-1,3-dihydro-indol-2-one]
≤ 500 | Cc1cc(C2(c3cc(C)c(O)c(C)c3)C(=O)N(Cc3ccc(-c4csnn4)cc3)c3ccccc32)cc(C)c1O [Example 84, 3,3-Bis-(4-hydroxy-3,5-dimethyl-phenyl)-1-(4-[1,2,3]thiadiazol-4-yl-benzyl)-1,3-dihydro-indol-2-one]
≤ 500 | Cc1cc(C2(c3cc(C)c(O)c(C)c3)C(=O)N(Cc3cccc([N+](=O)[O-])c3)c3ccccc32)cc(C)c1O [Example 85, 3,3-Bis-(4-hydroxy-3,5-dimethyl-phenyl)-1-(3-nitro-benzyl)-1,3-dihydro-indol-2-one]
≤ 500 | Cc1cc(C2(c3cc(C)c(O)c(C)c3)C(=O)N(Cc3noc(C4CCC4)n3)c3ccccc32)cc(C)c1O [Example 86, 1-(5-Cyclobutyl-[1,2,4]oxadiazol-3-ylmethyl)-3,3-bis-(4-hydroxy-3,5-dimethyl-phenyl)-1,3-dihydro-indol-2-one]
≤ 500 | Cc1cc(C2(c3cc(C)c(O)c(C)c3)C(=O)N(Cc3noc(-c4ccco4)n3)c3ccccc32)cc(C)c1O [Example 87, 1-(5-Furan-2-yl-[1,2,4]oxadiazol-3-ylmethyl)-3,3-bis-(4-hydroxy-3,5-dimethyl-phenyl)-1,3-dihydro-indol-2-one]
≤ 500 | CCc1nc(CN2C(=O)C(c3cc(C)c(O)c(C)c3)(c3cc(C)c(O)c(C)c3)c3ccccc32)cs1 [Example 90, 1-(2-Ethyl-thiazol-4-ylmethyl)-3,3-bis-(4-hydroxy-3,5-dimethyl-phenyl)-1,3-dihydro-indol-2-one]
≤ 500 | Cc1cc(C2(c3cc(C)c(O)c(C)c3)C(=O)N(Cc3csc(-c4ccccc4)n3)c3ccccc32)cc(C)c1O [Example 91, 3,3-Bis-(4-hydroxy-3,5-dimethyl-phenyl)-1-(2-phenyl-thiazol-4-ylmethyl)-1,3-dihydro-indol-2-one]
≤ 500 | Cc1ccc2c(c1)C(c1cc(C)c(O)c(C)c1)(c1cc(C)c(O)c(C)c1)C(=O)N2Cc1csc(-c2ccccc2)n1 [Example 92, 3,3-Bis-(4-hydroxy-3,5-dimethyl-phenyl)-5-methyl-1-(2-phenyl-thiazol-4-ylmethyl)-1,3-dihydro-indol-2-one]
≤ 500 | COc1ccc(-c2nc(CN3C(=O)C(c4cc(C)c(O)c(C)c4)(c4cc(C)c(O)c(C)c4)c4ccccc43)cs2)cc1 [Example 94, 3,3-Bis-(4-hydroxy-3,5-dimethyl-phenyl)-1-[2-(4-methoxy-phenyl)-thiazol-4-ylmethyl]-1,3-dihydro-indol-2-one]
≤ 500 | COc1ccc(-c2nc(CN3C(=O)C(c4cc(C)c(O)c(C)c4)(c4cc(C)c(O)c(C)c4)c4cc(C)ccc43)cs2)cc1 [Example 95, 3,3-Bis-(4-hydroxy-3,5-dimethyl-phenyl)-1-[2-(4-methoxy-phenyl)-thiazol-4-ylmethyl]-5-methyl-1,3-dihydro-indol-2-one]
≤ 500 | Cc1cc(C2(c3cc(C)c(O)c(C)c3)C(=O)N(Cc3ccc4ccccc4n3)c3ccccc32)cc(C)c1O [Example 97, 3,3-Bis-(4-hydroxy-3,5-dimethyl-phenyl)-1-quinolin-2-ylmethyl-1,3-dihydro-indol-2-one]
≤ 500 | COc1ccc(-c2nc(CN3C(=O)C(c4cc(C)c(O)c(C)c4)(c4cc(C)c(O)c(C)c4)c4ccccc43)no2)cc1 [Example 99, 3,3-Bis-(4-hydroxy-3,5-dimethyl-phenyl)-1-[5-(4-methoxy-phenyl)-[1,2,4]oxadiazol-3-ylmethyl]-1,3-dihydro-indol-2-one]
≤ 500 | C#CCN1C(=O)C(c2cc(C)c(O)c(C)c2)(c2cc(C)c(O)c(C)c2)c2ccccc21 [Example 101, 3,3-Bis-(4-hydroxy-3,5-dimethyl-phenyl)-1-prop-2-ynyl-1,3-dihydro-indol-2-one]
≤ 500 | CC(C)=CCN1C(=O)C(c2cc(C)c(O)c(C)c2)(c2cc(C)c(O)c(C)c2)c2ccccc21 [Example 102, 3,3-Bis-(4-hydroxy-3,5-dimethyl-phenyl)-1-(3-methyl-but-2-enyl)-1,3-dihydro-indol-2-one]
≤ 500 | C=C(C)CN1C(=O)C(c2cc(C)c(O)c(C)c2)(c2cc(C)c(O)c(C)c2)c2ccccc21 [Example 106, 3,3-Bis-(4-hydroxy-3,5-dimethyl-phenyl)-1-(2-methyl-allyl)-1,3-dihydro-indol-2-one]
≤ 500 | COC(=O)c1ccc(CN2C(=O)C(c3cc(C)c(O)c(C)c3)(c3cc(C)c(O)c(C)c3)c3ccccc32)o1 [Example 108, 5-[3,3-Bis-(4-hydroxy-3,5-dimethyl-phenyl)-2-oxo-2,3-dihydro-indol-1-ylmethyl]-furan-2-carboxylic acid methyl ester]
≤ 500 | CCOC(=O)CN1C(=O)C(c2cc(C)c(O)c(C)c2)(c2cc(C)c(O)c(C)c2)c2ccccc21 [Example 109, [3,3-Bis-(4-hydroxy-3,5-dimethyl-phenyl)-2-oxo-2,3-dihydro-indol-1-yl]-acetic acid ethyl ester]
≤ 500 | Cc1cc(C2(c3cc(C)c(O)c(C)c3)C(=O)N(CCC3CCCCC3)c3ccccc32)cc(C)c1O [Example 110, 1-(2-Cyclohexyl-ethyl)-3,3-bis-(4-hydroxy-3,5-dimethyl-phenyl)-1,3-dihydro-indol-2-one]
≤ 500 | Cc1cc(C2(c3cc(C)c(O)c(C)c3)C(=O)N(Cc3ccncc3)c3ccccc32)cc(C)c1O [Example 111, 3,3-Bis-(4-hydroxy-3,5-dimethyl-phenyl)-1-pyridin-4-ylmethyl-1,3-dihydro-indol-2-one]
≤ 500 | Cc1cc(C2(c3cc(C)c(O)c(C)c3)C(=O)N(Cc3c(Cl)cccc3Cl)c3ccccc32)cc(C)c1O [Example 113, 1-(2,6-Dichloro-benzyl)-3,3-bis-(4-hydroxy-3,5-dimethyl-phenyl)-1,3-dihydro-indol-2-one]
≤ 500 | Cc1cc(C2(c3cc(C)c(O)c(C)c3)C(=O)N(Cc3c(F)cccc3F)c3ccccc32)cc(C)c1O [Example 115, 1-(2,6-Difluoro-benzyl)-3,3-bis-(4-hydroxy-3,5-dimethyl-phenyl)-1,3-dihydro-indol-2-one]
≤ 500 | Cc1cc(C2(c3cc(C)c(O)c(C)c3)C(=O)N(Cc3ccccc3N)c3ccccc32)cc(C)c1O [Example 119, 1-(2-Amino-benzyl)-3,3-bis-(4-hydroxy-3,5-dimethyl-phenyl)-1,3-dihydro-indol-2-one]
≤ 500 | Cc1ccc(N2C(=O)C(c3cc(C)c(O)c(C)c3)(c3cc(C)c(O)c(C)c3)c3ccccc32)cc1 [Example 125, 3,3-Bis-(4-hydroxy-3,5-dimethyl-phenyl)-1-p-tolyl-1,3-dihydro-indol-2-one]
